The results in this text go back to patent US4529736A, “3a-(substituted phenyl)-2,3,3a,4,7,7a-hexahydro[or 3a-(substituted-phenyl)octahydro]-4,7-alkano-1H-isoindoles for treating depression in warm-blooded animals” (American Cyanamid Company, priority 1983, dated 1985).

In general, inhibition refers to the change of the read-out against control, counted positive when it falls.

The subject of experiment [1] is tetrabenazine-induced ptosis. Kind of experiment: Tetrabenazine Induced Ptosis (inhibition of ptosis). The experiment is classed as in vivo. As to conditions: Mus musculus, read-out: % Mice Responding. As for the experimental part:
The antidepressant activity of the compounds of this invention was further established in the following test. Inhibition of tetrabenazine-induced ptosis is observed concomitantly with the inhibition of tetrabenazine-induced depression. Ptosis is defined as more than 75% closure of palpebral aperture induced in animals by the administration of tetrabenazine methanesulfonate. The compounds were administered orally (P.O.) or intraperitoneally (I.P.) at 25 mg/kg to groups of 10 mice. Thirty minutes later, tetrabenazine methanesulfonate was administered intraperitoneally to each mouse at a dose of 39 mg/kg. Thirty minutes after the injection of tetrabenazine, the mice were placed on an observation disc and examined for 10 seconds for inhibition of ptosis. […]

Experiment [2] concerns the target T1, [^3 H]-imipramine binding to human platelet membranes (Homo sapiens, UniProt P31645).
T1 construct: from tissue; host or cells: human platelets (sonicated, washed membranes)
Kind of experiment: Platelet Imipramine Binding: inhibition of [^3 H]-imipramine binding to human platelet membranes. As to conditions: 50 μl of 50 μM compound stock + 200 μl membrane/[^3 H]imipramine mixture; 60 minutes at 0° C.; 10 μM desmethylimipramine = 0% binding. As for the experimental part: The activity of the compounds of this invention as antidepressant agents was further verified in the following test which measures the ability of a test compound to inhibit [^3 H]-imipramine binding to human platelet membranes.
Human platelet concentrates were diluted 1:20 with antiprotease containing buffer of the following composition:
0.005N potassium chloride
3 mN ethylenediaminetetraacetic acid
1 mN ethyleneglycol-bis-(β-aminoethyl ether)-N,N'-tetraacetic acid
This buffer was kept at pH 6.8 to prevent platelet release and aggregation.
The diluted platelets were centrifuged at 2500 g and then resuspended in 50 volumes of the same buffer. The cells were then ruptured with a Branson sonicator while the suspension was maintained in an ice bath. The ruptured cells were then centrifuged at 18,000 g, resuspended in fresh buffer and recentrifuged at 18,000 g. These membranes were diluted with the above antiprotease buffer which had been adjusted to pH 7.4 and to a concentration of 3.0 mg/ml.
The test compounds were dissolved in dimethylsulfoxide at a concentration of 50 mM and then diluted 1:10 in either water, 0.1M hydrochloric acid or 0.1M sodium hydroxide. They were then diluted 1:100 in buffer to 50 μM, and 50 μl of this stock solution was placed in triplicate test tubes. The tubes were cooled to 0° C. and 200 μl of the following mixture were added:
100 μl of 3 mg/ml membrane in buffer
50 μl of 15 nM[^3 H]imipramine in buffer
The tubes were incubated for 60 minutes at 0° C. Controls contain either buffer alone (100%) of 10 μM of final desmethylimipramine (DMI) (0%).
The samples were diluted with 5 ml of buffer [0.12M-sodium chloride, 0.05M-tris buffer, 0.005M-potassium chloride (pH 7.4)], vacuum filtered and washed twice with 5 ml of buffer. Radioactivity was measured in a liquid scintillation counter and the degree of binding was calculated.

The test system of experiment [3] is tetrabenazine-induced depression. Kind of experiment: Tetrabenazine Induced Depression (exploratory behaviour). As to conditions: Mus musculus, read-out: % Mice Protected. In kind it is in vivo. As for the experimental part:
The compounds of this invention are useful as antidepressant agents in warm-blooded animals as verified by the following test. The antidepressant properties of these compounds were tested by measuring their ability to counteract depression induced in animals by the administration of tetrabenazine methanesulfonate. Each test compound was administered orally (P.O.) or intraperitoneally (I.P.) to 10 mice at a dose of 25 mg/kg of body weight. Thirty minutes later, tetrabenazine methanesulfonate was administered intraperitoneally to each mouse at a dose of 39 mg/kg of body weight, which dose is known to depress markedly the exploratory behaviour of normal mice. Thirty minutes later the mice were tested for their exploratory behaviour as described by E. Greenblatt and A. C. Osterberg, Toxicology and Applied Pharmacology, 7, 566-578 (1965).

The subject of experiment [4] is stress induced depressed ("coping") behavior. Kind of experiment: Stress Induced Depressed Behavior Test. In kind it is in vivo. As to conditions: rats, intraperitoneally at 5-20 mg/kg; warm (44.5° C.) surface for 15 minutes; high ratio = active. As for the experimental part: The compounds of this invention are active as antistress agents in warm-blooded animals as evidenced by their results when tested in the Stress Induced Depressed Behavior Test. In this test, rats were confined on a warm (44.5° C.), but aversive, surface for 15 minutes. After 5-6 minutes, control rats began to show episodes of depressed ("coping") behavior where they remained flat and immobile for short to long periods of time. The onset and total duration of this behavior was timed. A ratio of onset/duration was calculated. The test compounds were administered intraperitoneally at 5-20 mg/kg of body weight. Active compounds prolong the time of onset and shorten the duration time resulting in high ratios.

Counter-ions that a name gives are not always drawn. Like-named read-outs stand apart in the source and are kept apart here.

T1 sequence (P31645 whole entry): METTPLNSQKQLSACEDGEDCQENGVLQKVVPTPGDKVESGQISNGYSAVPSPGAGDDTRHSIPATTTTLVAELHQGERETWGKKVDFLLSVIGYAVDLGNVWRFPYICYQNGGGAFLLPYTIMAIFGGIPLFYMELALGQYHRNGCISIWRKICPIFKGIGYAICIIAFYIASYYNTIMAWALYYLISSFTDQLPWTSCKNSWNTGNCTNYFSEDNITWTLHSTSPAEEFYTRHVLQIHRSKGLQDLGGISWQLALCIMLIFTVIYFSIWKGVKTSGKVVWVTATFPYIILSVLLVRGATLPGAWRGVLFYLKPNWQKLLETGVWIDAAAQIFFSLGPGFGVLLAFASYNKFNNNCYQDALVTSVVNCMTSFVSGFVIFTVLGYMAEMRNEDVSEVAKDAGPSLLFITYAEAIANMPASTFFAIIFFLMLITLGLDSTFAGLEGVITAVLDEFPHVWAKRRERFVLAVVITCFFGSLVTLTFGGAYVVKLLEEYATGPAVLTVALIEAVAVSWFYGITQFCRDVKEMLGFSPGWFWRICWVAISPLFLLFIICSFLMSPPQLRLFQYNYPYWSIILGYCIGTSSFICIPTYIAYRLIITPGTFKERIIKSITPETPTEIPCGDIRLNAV

For the compound `c1ccc([C@@]23CNC[C@@H]2[C@@H]2CC[C@H]3C2)cc1` (relative stereo) [Octahydro-3a-phenyl-4,7-methano-1H-isoindole fumarate], the responders at 25 mg/kg in experiment [1] (ip) and in experiment [3] (ip) was 50% throughout. For the same compound, the inhibition at 10 µM in experiment [2] stood at 98%.

On to `CN1C[C@@H]2[C@@H]3C=C[C@@H](C3)[C@]2(c2cccc(O)c2)C1` (relative stereo) [3-(1,2,3,4,7,7a-Hexahydro-2-methyl-4,7-methano-3aH-isoindol-3a-yl)phenol], for which the values for the responders at 25 mg/kg in experiment [1] (po) and in experiment [3] (po) were 100% and 60%, respectively. Also, the inhibition at 10 µM in experiment [2] worked out at 86%.

In the case of `Cc1ccc([C@@]23CNC[C@@H]2[C@@H]2C=C[C@H]3C2)cc1` (relative stereo) [2,3,3a,4,7,7a-Hexahydro-3a-(4-methylphenyl)-4,7-methano-1H-isoindole maleate (1:1)], the responders at 25 mg/kg in experiment [1] (ip) amounted to 60%. For the same compound, the inhibition at 10 µM in experiment [2] is 94%.

Turning to `CCN1C[C@@H]2C3CCC(CC3)[C@]2(c2ccc(Cl)c(Cl)c2)C1` (relative stereo) [3a-(3,4-Dichlorophenyl)-2-ethyloctahydro-4,7-ethano-1H-isoindole fumarate (1:1)], the responders at 25 mg/kg is 100% in experiment [1] (ip) and 50% in experiment [3] (po). In experiment [2], the inhibition at 10 µM is 89%. In addition, the Ratio onset/duration in experiment [4] stood at 66.

As for `Clc1ccc([C@@]23CNC[C@@H]2[C@@H]2C=C[C@H]3C2)cc1` (relative stereo) [3-a-(4-Chlorophenyl)-2,3,3a,4,7,7a-hexahydro-4,7-methano-1H-isoindole fumarate], the figures for the responders at 25 mg/kg in experiment [1] (po) and in experiment [3] (ip) were 80% and 60%, respectively. For the same compound, in experiment [2], the inhibition at 10 µM stood at 98%.

As for `CN1C[C@@H]2[C@@H]3CC[C@@H](C3)[C@]2(c2ccc(N)cc2)C1` (relative stereo) [4-(1,2,3,4,5,6,7,7a-Octahydro-2-methyl-4,7-methano-3aH-isoindol-3a-yl)benzenamine fumarate (1:1)], the responders at 25 mg/kg worked out at 100% in experiment [1] (ip) and 50% in experiment [3] (ip). The inhibition at 10 µM in experiment [2] is 80%.

As for `Cc1ccc([C@@]23CN(C)C[C@@H]2[C@@H]2C=C[C@H]3C2)cc1` (relative stereo) [2,3,3a,4,7,7a-Hexahydro-2-methyl-3a-(4-methylphenyl)-4,7-methano-1H-isoindole maleate (1:1)], the responders at 25 mg/kg came out at 90% in experiment [1] (po) and 80% in experiment [3] (ip). The inhibition at 10 µM in experiment [2] came out at 98%.

`CN1C[C@@H]2[C@@H]3CC[C@@H](C3)[C@]2(c2ccc(Cl)cc2)C1` (relative stereo) [3a-(4-Chlorophenyl)octahydro-2-methyl-4,7-methano-1H-isoindole fumarate (1:1)]: the responders at 25 mg/kg in experiment [1] (ip) was determined as 90%; in experiment [3] (ip), 60%. Also, the inhibition at 10 µM in experiment [2] stood at 91%. Further, the Ratio onset/duration in experiment [4] was 20.

Take `CN1C[C@@H]2[C@@H]3C=C[C@@H](C3)[C@]2(c2ccc(N)cc2)C1` (relative stereo) [4-(1,2,3,4,7,7a-Hexahydro-2-methyl-4,7-methano-3aH-isoindol-3a-yl)benzenamine fumarate (1:2)]: the responders at 25 mg/kg came to 100% in experiment [1] (ip) and 70% in experiment [3] (po).

With `CN1C[C@@H]2C3CCC(CC3)[C@]2(c2ccc(Cl)c(Cl)c2)C1` (relative stereo) [3a-(3,4-Dichlorophenyl)octahydro-2-methyl-4,7-ethano-1H-isoindole fumarate (1:1)], the responders at 25 mg/kg came out at 90% in experiment [1] (ip) and 50% in experiment [3] (po). Moreover, the inhibition at 10 µM in experiment [2] was found to be 94%. Moreover, in experiment [4], the Ratio onset/duration is 83.

On to `CN1C[C@@H]2[C@@H]3CC[C@@H](C3)[C@]2(c2ccc([N+](=O)[O-])cc2)C1` (relative stereo) [Octahydro-2-methyl-3a-(4-nitrophenyl)-4,7-methano-1H-isoindole fumarate (1:1)], for which the responders at 25 mg/kg in experiment [1] (ip) is 70%; in experiment [3] (ip), 30%. Moreover, the inhibition at 10 µM in experiment [2] amounted to 66%.

With `CN1C[C@@H]2[C@@H]3C=C[C@@H](C3)[C@]2(c2cccc(C(F)(F)F)c2)C1` (relative stereo) [2,3,3a,4,7,7a-Hexahydro-2-methyl-3a-[3-(trifluoromethyl)phenyl]-4,7-methano-1H-isoindole fumarate], the responders at 25 mg/kg in experiment [1] (ip) worked out at 100%; in experiment [3] (ip) it was 70%. Moreover, the inhibition at 10 µM in experiment [2] was 91%.

Consider `CN1C[C@@H]2C3CCC(CC3)[C@]2(c2ccc(F)c(F)c2)C1` (relative stereo) [3a-(3,4-Difluorophenyl)octahydro-2-methyl-4,7-ethano-1H-isoindole fumarate (1:1)], for which the inhibition at 10 µM in experiment [2] was determined as 100%.

For the compound `C[N+]1(C)C[C@@H]2[C@@H]3CC[C@@H](C3)[C@]2(c2ccc(N=[N+]=[N-])cc2)C1` (relative stereo) [3a-(4-Azidophenyl)octahydro-2,2-dimethyl-4,7-methano-1H-isoindolium iodide], the responders at 25 mg/kg in experiment [1] (po, P.O., 25 mg/kg, responders: 75% or greater opening of palpebral aperture) stood at 100%; in experiment [3] (po, P.O., 25 mg/kg, 10 mice, tetrabenazine methanesulfonate 39 mg/kg I.P.), 30%. The inhibition at 10 µM in experiment [2] is 88%.

On to `Clc1ccc([C@@]23CNC[C@@H]2[C@@H]2CC[C@H]3C2)cc1Cl` (relative stereo) [3a-(3,4-Dichlorophenyl)octahydro-4,7-methano-1H-isoindole hydrochloride], for which the responders at 25 mg/kg in experiment [1] (ip) turned out to be 100%; in experiment [3] (po) it was 40%. The inhibition at 10 µM in experiment [2] came to 96%. The Ratio onset/duration in experiment [4] is 76.

Regarding `COc1cccc([C@@]23CN(C)C[C@@H]2[C@@H]2C=C[C@H]3C2)c1` (relative stereo) [2,3,3a,4,7,7a-Hexahydro-3a-(3-methoxyphenyl)-2-methyl-4,7-methano-1H-isoindole maleate (1:1)], the responders at 25 mg/kg worked out at 60% in experiment [1] (po) and 40% in experiment [3] (po). The inhibition at 10 µM in experiment [2] was 86%.

Regarding `CN1C[C@@H]2[C@@H]3CC[C@@H](C3)[C@]2(c2ccc(F)c(F)c2)C1` (relative stereo) [3a-(3,4-Difluorophenyl)octahydro-2-methyl-4,7-methano-1H-isoindole fumarate (1:1)], the responders at 25 mg/kg in experiment [1] (ip) is 70%; in experiment [3] (ip), 50%. Further, the inhibition at 10 µM in experiment [2] came to 95%.

Regarding `CN1C[C@@H]2[C@@H]3C=C[C@@H](C3)[C@]2(c2cccc(Cl)c2)C1` (relative stereo) [3a-(3-Chlorophenyl)2,3,3a,4,7,7a-hexahydro-2-methyl-4,7-methano-1H-isoindole fumarate (1:1)], the responders at 25 mg/kg is 100% in experiment [1] (ip) and 60% in experiment [3] (ip). The inhibition at 10 µM in experiment [2] worked out at 86%. In experiment [4], the Ratio onset/duration is 13.
